For series [1], the system named is PC3 cells. Briefly: CELLTITER-GLO luminescent intracellular ATP quantification. The format is cell-based, Human. The following applies: for Increase in intracellular ATP levels: 3 h; for ATP level and cell growth at high concentration: PC3 cells, 6 h. The method, then:
A decrease in cancer cell lactate levels is expected to be associated with an increase in ATP production. Intracellular ATP levels in PC3, LNCaP, and MSC cells treated with MITO-DCA (20 μM), TPP-DCA (60 μM), and Na-DCA (60 μM) were measured.
PC3 or MSC cells were plated at a density of 10,000 cells per well in 96-well plates compatible with the luminometer used in 100 μL media. […] Control wells containing medium without cells were prepared to obtain a value for background luminescence. Plates were then equilibrated at room temperature for ˜30 min. A volume of CELLTITER-GLO™ reagent equal to the volume of cell culture medium present in each well was added, this mixtures were well mixed for 2 min using a shaker to induce cell lysis. The plates were allowed to incubate at room temperature for 10 min to stabilize luminescent signal. Luminescent was recorded using a plate reader. ATP quantification was carried out from a standard curve using ATP disodium salt hydrate.
For orientation: ATP-based viability assays read luminescence as a measure of living cells.

Another series deals with MSC cells. The series is described as follows: Annexin V/PI apoptosis detection by flow cytometry. The format is cell-based, Human. The method, then: In order to determine whether the enhanced activity of MITO-DCA upon targeting this compound to the mitochondria of cells was due to apoptosis rather than necrosis, an ALEXA FLUOR™ 488-Annexin-V and propidium iodide (PI) cell staining in PC3 and MSC cells was carried out and data were analyzed using flow cytometry (FIG. 4B). As controls, etoposide treated cells were used as early apoptosis population and H2O2 treated cells were marked as late apoptotic or necrotic population. […] There were no late apoptotic or necrotic cells observed with these compounds.
PC3 and MSC cells were seeded at a density of 1×10^6 cells/mL on each well of a six well plate and allowed to grow overnight. Cells were treated with 50 μM Na-DCA, 150 μM TPP-DCA, and 150 μM MITO-DCA for 12 h at 37° C. As positive controls, etoposide (100 μM, incubation time: 12 h) for apoptosis and H2O2 (1 mM, incubation time: 45 min) for necrosis were used. The cells were trypsinized, repeatedly washed, and centrifuged at 1,800 RPM for 3 min, and the supernatants were discarded. Cell density was determined and cells were resuspended in 1× annexin-binding buffer to ˜1×10^6 cells/mL preparing a sufficient volume to have 100 µL per assay. To 100 μL of cell suspension, 5 μL ALEXA FLUOR™ 488 annexin V and 1 µL 100 μg/mL PI working solution were added and incubated for 15 min at room temperature. After the incubation period, 400 μL 1× annexin-binding buffer was added to each sample, samples were gently mixed keeping the samples on ice and the samples were analyzed on the flow cytometer immediately.
(Flow cytometry measures light scatter and fluorescence of single cells or particles in a stream.)

Series [2] deals with PC3 cells. The series is described as follows: Cytokine production by treated PC3 cells (ELISA). The format is cell-based, Human. The following applies: 50 μM, 24 h. From the text:
Cancer cells recruit several pathways to evade elimination by the immune system (Kim et al., Immunology 121:1-14, 2007). Several mechanisms by which tumor cells escape immunity include upregulation of inhibitory molecules, production of immunosuppressive cytokines, and downregulation of costimulatory molecules (Rabinovich et al., Annu. Rev. Immunol. 25:267-296, 2007). Dendritic cells (DCs), the major players for the initiation of a specific anti-tumor T-cell response, are potential target to tumor-mediated immunosuppression. (Gabrilovich et al., Nat. Med. 2:1096-1103, 1996; Radmayr et al., Int. J. Cancer 63:627-632, 1995; Orsini et al., Cancer Res. 63:4497-4506, 2003.) Lactic acid secretion in highly proliferative glycolytic tumor has the ability to induce alteration in antigen phenotype and functional activity of DCs, which contributes to the suppression of local immunity (Gottfried et al. 2006). Tumor derived lactic acid inhibit the differentiation of monocytes to DCs, impair DC activation and antigen expression and suppress the proliferation, cytokine production and cytotoxic activity of T cells (Fischer et al., Blood 109:3812-3819, 2007). After observing significant and very selective reduction in lactate levels in PCa cells by MITO-DCA, the impact of the reduced lactate producing PC3 cell supernatants on DCs was investigated. […]
In general terms: ELISA stands for enzyme-linked immunosorbent assay.

The next series can be described thus: Solubility study. The format is physicochemical. The method, then:
Solubility of MITO-DCA in water was checked by preparing different concentration of MITO-DCA ranging from 2 μM to 5 mM in DMSO (0.1-2.5%)-phosphate buffered saline (PBS). At all concentrations, MITO-DCA was transparent.

`O=C(OCCC[P+](c1ccccc1)(c1ccccc1)c1ccccc1)C(Cl)Cl.[Br-]` [TPP-DCA]: the “Increase in intracellular ATP levels” value with PC3 cells [1] (60 μM) is listed as “did not show any significant increase”. In addition, the “ATP level and cell growth at high concentration” value with PC3 cells [1] (150 μM) was “ATP reduction and cell growth inhibition”. Besides, in the series on MSC cells (150 μM), the “Apoptosis (annexin V/PI)” value was “did not undergo apoptosis”.
As for `O=C(CCCCC[P+](c1ccccc1)(c1ccccc1)c1ccccc1)NC(COC(=O)C(Cl)Cl)(COC(=O)C(Cl)Cl)COC(=O)C(Cl)Cl.[Br-]` [MITO-DCA], the “Levels of IL-6, IL-10 and TNF-α from PC3 cells, compared with TPP-DCA or Na-DCA” value with PC3 cells [2] is on record as “higher”. The “Increase in intracellular ATP levels” value in the series on PC3 cells [1] (20 μM) was ~44%. Further, the “ATP level and cell growth at high concentration” value with PC3 cells [1] (50 μM) was “ATP reduction and cell growth inhibition”. The “Apoptosis (annexin V/PI)” value in the series with MSC cells (50 μM) is reported as “did not undergo apoptosis”. Moreover, in the series “Solubility study” (2 μM to 5 mM in DMSO (0.1-2.5%)-phosphate buffered saline (PBS)), the “Solubility in water (appearance of solution)” value is listed as “transparent”. Also, in the series “Solubility study” (compared with DCA), the “Solubility in an organic solvent” value is “far higher than that of DCA”.

These data come from patent US10004809B2, “Precise delivery of therapeutic agents to cell mitochondria for anti-cancer therapy” (UNIVERSITY OF GEORGIA RESEARCH FOUNDATION, INC., priority 2013, dated 2018).
